Read-outs that look alike come from different tables or passages of the source.
Experiments:
[1] = target: T1, CLDN18.2 virus-like particle (VLP) (Homo sapiens, UniProt P56856); assay: Indirect ELISA on CLDN18.2 virus-like particle (VLP); assay type: binding; settings: CLDN18.2 (antigen protein), VLP-coated plate
T1 construct: purchased CUSABIO TECHNOLOGY LLC CSB-MP005498HU (A5)
Method: To confirm the binding strength to an antigen, a CLDN18.2 virus-like particle (VLP) in which the claudin 18.2 protein (CLDN18.2) was expressed was prepared. At this time, CLDN18.2˜VLP is CSB-MP005498HU (A5) from CUSABIO TECHNOLOGY LLC.
After a 96-well plate was coated with the CLDN18.2 VLP for ELISA and treated with antibody-A and ADC-A, respectively, indirect ELISA was performed to measure OD values. At this time, the measured values are illustrated in FIG. 37.
The measured results were used for regression analysis in GraphPad PRISM® 9.0 software to calculate EC50 and Bmax. The antigen binding strengths of antibody-A, ADC-A, antibody-B, and ADC-B were evaluated based on the calculated values.

MIA PaCa-2˜CLDN18.2 = assay: Cell-based ELISA, binding to antigen-expressing cancer cells
Method: (§1) Four types of cell lines (MIA PaCa-2˜CLDN18.2, PATU8988S, parental MIA PaCa-2 (CLDN18.2-), and SNU601) were prepared. At this time, MIA PaCa-2˜CLDN18.2 and PATU8988S are CLDN18.2-positive pancreatic cancer cell lines. MIA PaCa-2 (CLDN18.2-) is a CLDN18.2-negative pancreatic cancer cell line. SNU601 is a CLDN18.2-positive gastric cancer cell line.
(§2) The prepared cell lines were cultured in DMEM containing 10% FBS and 1% penicillin/streptomycin (MIA PaCa-2˜CLDN18.2, MIA PaCa-2 (CLDN18.2-)), RPMI1640 containing 10% FBS and 1% penicillin/streptomycin (SNU601), and DMEM comprising 5% FBS, 5% horse serum, 1% penicillin/streptomycin, and […] L-glutamine (PATU8988S) in an incubator under the conditions of 37° C. and 5% CO2.
(§3) The prepared cell lines were plated on 96-well culture plates, treated with antibody-A, ADC-A, antibody-B, and ADC-B, respectively, and then cell-based ELISA was performed, and OD values were measured. At this time, the measured values are illustrated in FIGS. 38 to 41.
(§4) The measured results were used for regression analysis in GraphPad PRISM® 9.0 software to calculate EC50 and Bmax. The cell binding strengths of antibody-A, ADC-A, antibody-B, and ADC-B to each cell line were evaluated based on the calculated values.

SNU601 = assay: as above; settings: SNU601 (CLDN18.2+)
Method: as §1, §2, §3, §4

MIA PaCa-2 (CLDN18.2-) = assay: Cell-based ELISA, CLDN18.2-negative cancer cells; assay type: binding; settings: parental MIA PaCa-2, CLDN 18.2-negative cell line
Method: as §1, §2, §3, §4

Zolbetuximab [Antibody-B]
Bmax [1]: 2.134 | Bmax (MIA PaCa-2˜CLDN18.2): 3.053 | Kd (MIA PaCa-2˜CLDN18.2; pancreatic cancer cell line): 0.045 µg/mL | Kd (MIA PaCa-2˜CLDN18.2; read-out: Kd): 0.3 nM | Bmax (SNU601): 1.701 | Kd (SNU601; gastric cancer cell line): 0.032 µg/mL | Kd (SNU601; read-out: Kd): 0.213 nM | binding to cell line (in words) (MIA PaCa-2 (CLDN18.2-)): did not bind

— US20250222123A1, “COMPOUND COMPRISING FC-BINDING UNIT, AND CONJUGATE PREPARED USING SAME” (ABTIS CO., LTD., priority 2022, published 2025)
